Experiment [1] can be described thus: Blood-brain barrier crossing in the intracranial xenograft model. The note with it: i.v.; concluded from intracranial tumor model. It is filed as in vivo, mouse. The method, then:
B. U-87MG cells (2×10^5) were incubated for 12 h with the indicated concentrations of DMSO, Retro-Tf-D-LP4 peptide (Pep), or Retro-Tf-D-LP4 encapsulated in PLGA nanoparticles (PLGA-Pep). Samples of Retro-Tf-D-LP4 encapsulated in PLGA nanoparticles were centrifuged (15000g, 5 min) to separate the supernatant (Sup), containing free peptide, and the pellet, containing encapsulated Retro-Tf-D-LP4 peptide. Cell death was analyzed by PI staining and FACS analysis. C. Graphical representation of the orthotopic animal experiment. D. MRI imaging of brains 29 days post-intravenal treatment start with DMSO (1.05%), Retro-Tf-D-LP4 (10 mg/kg) encapsulated in PLGA nanoparticles or Tf-D-Retro-LP4 peptide (10 mg/Kg), as described in Materials and Methods available online in Supplemental information. E. Calculated tumor volumes after 20 (dark grey bars) and 29 (light grey bars) days post-treatment start. Results = mean ± SE (n = 6) (* p<0.05, *** p<0.001). F. Kaplan-Meier survival curves showing statistically significant differences in survival curves between the PBS/DMSO and Retro-Tf-D-LP4 treated mice. […]
For the intracranial-orthotopic xenograft mouse model, U-87MG cells (8×10^4) were engrafted into a nude mouse brain using a stereotactic device. […] Tumor volume was analyzed using VivoQuant 2.10 software.

Another experiment has as its system U-87MG cells. Nature of the experiment: Morphological analysis of apoptosis by electron microscopy. The experiment is classed as cell-based, human. The conditions noted are these: 6 h, serum-free medium, Suppl Fig 2C. The method, then: Supplementary Figure 2: Mode of action of VDAC1-based peptides. […]
detachment. SH-SY5Y cells (4×10^4/ml) were grown on cover slips, transfected with plasmid pEGFP-HK-I and after 24 h, were incubated […]
The final DMSO concentration in control and peptide-treated cells was 0.07%. Fixed cells were stained with DAPI and visualized by confocal microscopy (Olympus 1X81). Arrows indicate cells […]
showing diffusion of HK-I-GFP. B-C. […] B. SH-SY5Y cells were treated with the indicated […]
Arrows and arrowheads indicate cells with membrane blebbing (early apoptotic state) and late apoptotic states, respectively. C. Morphological analysis of apoptosis by electron microscopy (EM). For transmission EM, U-87MG cells (1.6 x10^6 /ml) were incubated with the indicated concentrations of D-ΔN-Ter-Antp peptide or DMSO (0.3% final concentration) for 6 h in serum-free medium. Cells were pelleted and fixed in Karnovsky’s fixative (2% paraformaldehyde, 2.5% glutaraldehyde in 0.1 M cacodylate buffer, pH 7.4) for 10 minutes at room temperature and then in fresh fixative for 3.5 days in the cold. Following buffer rinses, the cells were incubated with 1% osmium tetroxide in 0.1 M cacodylate buffer, dehydrated in an ethanol series, incubated with epoxy propane and embedded in Araldite resin. […]

The test system of another experiment is cancer cells. The conditions noted are these: ref [23]; cited from earlier work. An excerpt: D-ΔN-Ter-Antp is composed of Antp (Penetrating), a 16 residue-long sequence from the Drosophila antennapedia-homeodomain, fused to a VDAC1-N-terminal sequence, both containing amino ...

Non-standard residues stand in square brackets, D forms with d. Residues, ends and D or L forms follow the SMILES beside them.

With `CC[C@H](C)[C@H](NC(=O)[C@H](Cc1ccc(O)cc1)NC(=O)[C@@H]1CCCN1C(=O)[C@H](CCCNC(=N)N)NC(=O)[C@H](Cc1c[nH]cn1)NC(=O)[C@H](CO)NC(=O)[C@H](Cc1c[nH]c2ccccc12)NC(=O)[C@@H](NC(=O)[C@H](Cc1c[nH]c2ccccc12)NC(=O)[C@H](CCC(=O)O)NC(=O)[C@@H](CCCCN)NC(=O)[C@@H](CCCCN)NC(=O)[C@@H](CC(C)C)NC(=O)[C@@H](CCC(=O)O)NC(=O)[C@H](NC(=O)[C@@H](C)NC(=O)[C@H](NC(=O)[C@@H](CC(N)=O)NC(=O)[C@@H](CC(C)C)NC(=O)[C@@H](C)NC(=O)[C@@H](Cc1c[nH]c2ccccc12)NC(=O)[C@H](NC(=O)[C@@H](C)NC(=O)CNC(=O)[C@@H](CC(N)=O)NC(=O)[C@@H](CO)NC(=O)[C@@H](CC(N)=O)NC(=O)[C@H](CCCCN)NC(=O)[C@H](Cc1c[nH]c2ccccc12)NC(=O)[C@@H](NC(=O)[C@H](Cc1c[nH]c2ccccc12)NC(=O)[C@@H](N)CCCCN)[C@@H](C)O)[C@H](C)O)C(C)C)[C@H](C)O)[C@@H](C)O)C(=O)N[C@@H](C)C(=O)N[C@@H](Cc1c[nH]cn1)C(=O)O` [Retro-Tf-D-LP4], the “crossing of the blood-brain barrier / reaching the brain” value in experiment [1] is given as “able to cross the blood-brain barrier in vivo”. `CC[C@@H](C)[C@@H](NC(=O)[C@@H](CCCCN)NC(=O)[C@H](NC(=O)[C@@H](CCC(N)=O)NC(=O)[C@@H](CCCNC(=N)N)NC(=O)[C@@H](CC(C)C)NC(=O)CNC(=O)[C@@H](Cc1ccccc1)NC(=O)CNC(=O)[C@@H](Cc1ccc(O)cc1)NC(=O)CNC(=O)[C@@H](CCCCN)NC(=O)[C@H](NC(=O)[C@@H](Cc1ccccc1)NC(=O)[C@H](NC(=O)[C@@H](CC(=O)O)NC(=O)[C@H](N)CCCNC(=N)N)C(C)C)[C@H](C)O)[C@H](C)CC)C(=O)N[C@H](Cc1c[nH]c2ccccc12)C(=O)N[C@H](Cc1ccccc1)C(=O)N[C@H](CCC(N)=O)C(=O)N[C@H](CC(N)=O)C(=O)N[C@H](CCCNC(=N)N)C(=O)N[C@H](CCCNC(=N)N)C(=O)N[C@H](CCSC)C(=O)N[C@H](CCCCN)C(=O)N[C@H](Cc1c[nH]c2ccccc12)C(=O)N[C@H](CCCCN)C(=O)N[C@H](CCCCN)C(=O)O` [D-ΔN-Ter-Antp] (H-[dR][dD][dV][dF][dT][dK]G[dY]G[dF]G[dL][dR][dQ][dI][dK][dI][dW][dF][dQ][dN][dR][dR][dM][dK][dW][dK][dK]-OH; N-terminus and C-terminus assumed): the “apoptotic morphological changes (electron microscopy)” value with U-87MG cells is “condensation of nuclei, DNA fragmentation, and possible apoptotic body formation”. Also, the “cell death induction, selection among over 40 versions” value with cancer cells is recorded as “most active in cell death induction”.

Values taken from PMC5458211, “Mitochondrial VDAC1-based peptides: Attacking oncogenic properties in glioblastoma” (Oncotarget, 2017).
